# Patent US11952328B2, “Selective ship inhibitors for treating disease” (THE RESEARCH FOUNDATION FOR THE STATE UNIVERSITY OF NEW YORK, priority 2018, dated 2024)
# System: NK cells
# Experiment: NK cell IFNγ production by intracellular flow cytometry after two-day in vivo treatment
# Design: species or system mice
# Details: two-day 3AC vs vehicle
# Description: FIGS. 3B-3E show activation of NK cells and T cells following exposure to the SHIP1 inhibitor 3AC in vivo. NK cells from two-day 3AC- or vehicle-treated mice were stimulated by incubation on uncoated plates, on plates coated with anti-NK1.1, anti-NKp46, or anti-NKG2D antibody, or on uncoated plates but in the presence of PMA and ionomycin. Representative flow plots (FIG. 3B) and box and whisker plots (FIG. 3C) show the frequency of NK cell production of IFNγ determined by intracellular flow cytometry. […] Anti-CD107a (LAMP-1) PE antibody was added for the final 5 hours of incubation. Degranulation of CD8+ T cells was determined by analysis of CD107a expression by flow cytometry. […]
# SHIP1 is recruited directly to the T cell receptor (TcR), as well as to the scaffolding protein Dokl that limits T cell activation by the TcR (Reginald, K., Revisiting the timing of action of the PAG adaptor using quantitative proteomics analysis of primary T cells. J Immunol. (2015); 195: 5472-5481; Waterman, P. M. et al., The inositol 5phosphatase SHIP-1 and adaptors Dok-1 and 2 play central roles in CD4-mediated inhibitory signaling. Immunol Lett. (2012); 143: 122-130; Freeburn, R. W. et al., Evidence that SHIP-1 contributes to phosphatidylinositol 3,4,5-trisphosphate metabolism in T lymphocytes and can regulate novel phosphoinositide 3-kinase effectors. […]
structure (smiles),measurement,setting,value
"CC(C)CCC[C@@H](C)[C@H]1CC[C@H]2[C@@H]3CCC4C[C@H](N)CC[C@]4(C)[C@H]3CC[C@]12C (stereo partly drawn) [Compound 3AC, 3-α-aminocholestane]",NK cell IFNγ production,stimulated with PMA and ionomycin,no difference
same,NK cell IFNγ production,"stimulation with anti-NK1.1, anti-NKp46 or anti-NKG2D",significantly increased
